“Also recorded” adds a separate entry of the source.
Columns and labels:
[1] = test system: tomato spotted wilt virus; conditions: tomato and tobacco plants; cited from earlier work
recombinant MPS-1 = target: T1, recombinant MPS-1 (Homo sapiens, UniProt P42677); experiment: Gel shift assay and Zn65 removal with recombinant MPS-1; assay type: biochemical; conditions: for zinc dependent binding of recombinant MPS-1 to DNA: gel shift assays
T1 construct: made in house
Description: MPS-1 is a ubiquitous tumor marker and cell growth stimulator and is described in detail in the inventors' U.S. Pat. No. 5,243,041. MPS-1 has one zinc finger domain of the type CCCC. […] This is detected by a change in the electrophoretic mobility of MPS-1 under non-denaturing conditions. These experiments indicate that picolinic acid and derivatives should remove zinc and denature various types of zinc finger, zinc ring proteins, or other types of ZF motifs whether known or heretofore undiscovered, including animal or plant viral proteins such as nucleocapsid proteins of retrovirus or the nucleocapsid proteins of Geminivirus. Furthermore, the inventors have determined that any chemical compound, whether known or heretofore undiscovered, that will remove the zinc (or other metal) and denature the proteins or that will form a ternary complex (protein-zinc-chelator) can be effective as an antiviral agent, with nontoxic effects, provided that the agent conforms with certain specific structural requirements.

Orobache ramosa = conditions: Arabidopsis thaliana pre-treated with FU; cited from earlier work
HSV-2 = conditions: tissue culture and animals; cited from earlier work
Arabidopsis thaliana [2] = conditions: cited from earlier work
HSV-1 = conditions: tissue culture and animals; cited from earlier work
virally infected cells = experiment: Apoptosis of virally infected cells; assay type: cell-based; conditions: for fate of viruses and host cells: HIV-1, Hepatitis C and numerous other viruses as well as the host cells
Description: APOPTOSIS. Apoptosis is a morphological pattern of cell injury and an important mode of cell death (Robbins, Pathological Basis of Disease, 1999, 6th Ed). Apoptosis shares and overlaps common mechanisms with necrosis. […] This form of cell death is designed to eliminate defective, unwanted and damaged cells. For example, the inventors have shown that cells infected by Herpes Simplex Virus 1 (HSV; labialis) and HSV-2 genitalis are destroyed together with the host cells that they infected by apoptosis when exposed to pyridine carboxylates (Fernandez-Pol, Anticancer Res. 2002). […] Thus, the inventors believes that when host cells of animals or plants are infected by pathogenic viruses, unless the treatment is extremely quickly, the host cells and the virus will be destroyed. In fact, host cells defective, mutated, and reservoirs for the novo synthesis of viruses are unwanted host cells and must be eliminated in many instances to allow the survival of the organism.

mammalian retroviruses = conditions: millimolar concentrations; measured by release of reverse transcriptase; cited from earlier work
Mammalian rotaviruses = conditions: millimolar concentrations; cited from earlier work
[3] = test system: iron incorporation into the cells; experiment: Kinetic and radioisotopic studies of iron in cells; assay type: cell-based
Arabidopsis thaliana [4] = conditions: cited from earlier work; remark: listed apart in the source
[5] = test system: Rice suspension cells and leaves; conditions: cited from earlier work
[6] = test system: SV40-transformed Balb 3T3 cells; conditions: cited from earlier work
NRK cells = NRK cells treated with picolinic acid; cited from earlier work
transformed cells = conditions: Kirsten sarcoma virus transformed cells; Flow Microfluorometric Analysis of DNA; cited from earlier work
[7] = test system: SV40 transformed BALB-3T3 cells; conditions: 3 mM picolinic acid; cited from earlier work
[8] = test system: normal cells (BALB 3T3, NRK, WI-348); experiment: Growth control and cell cycle arrest in normal cells
[9] = test system: Arabidopsis thaliana ars27A mutant; conditions: in comparison with the wild type; cited from earlier work

For NC(=O)c1ncn([C@@H]2O[C@H](CO)[C@@H](O)[C@H]2O)n1 [Ribavirin], the “efficacy against tomato spotted wilt virus” value [1] is given as “successfully used; also recorded: most efficient in tomato plants”.

For CCCCc1ccc(C(=O)O)nc1 [fusaric acid, 5-butyl picolinic acid], the “removal of zinc (Zn65) from the CCCC zinc finger of MPS-1” value (recombinant MPS-1) is listed as “remove radioactive Zn65 from MPS-1; also recorded: remove zinc”, the “zinc dependent binding of recombinant MPS-1 to DNA” value (recombinant MPS-1) is listed as “inhibit” and the “germination of the angiosperm parasite” value (Orobache ramosa) is listed as “inhibited”. For the same molecule, the “efficacy against viral infection” value (HSV-2) was “effective”, the “concentrations that reduced root growth” value (Arabidopsis thaliana [2]; also rapid transient membrane hyperpolarization, then large depolarization) was > 500 µM and the “concentration eliciting plant defense responses without toxic effects” value (Arabidopsis thaliana [2]; in vivo) was 100 nM. The “efficacy against viral infection” value (HSV-1) was “effective” and the “fate of viruses and host cells” value (virally infected cells) was “Death by apoptosis”.

In the case of O=C(O)CN(CCN(CC(=O)O)CC(=O)O)CC(=O)O [EDTA], the “disintegration of viral membranes” value (mammalian retroviruses) is listed as “partial disintegration of viral membranes” and the “disintegration of viral membranes” value (Mammalian rotaviruses) is listed as “partial disintegration of the viral membranes”.

In the case of O=C(O)c1ccccn1 [picolinic acid, 2-pyridine carboxylic acid], the “removal of zinc (Zn65) from the CCCC zinc finger of MPS-1” value (recombinant MPS-1) is reported as “remove radioactive Zn65 from MPS-1; also recorded: remove zinc”, the “zinc dependent binding of recombinant MPS-1 to DNA” value (recombinant MPS-1) is reported as “inhibit” and the “incorporation of iron into the cells” value [3] is reported as “inhibits incorporation of iron into the cells”. For the same molecule, the “removal of radioiron from the cells” value [3] was “effectively removes radioiron from the cells”, the “marker defense genes PR-1, PR-2 and PDF1.2” value (Arabidopsis thaliana [4]; dose-dependent and time dependent) was “all induced” and the “salicylic acid-dependent and jasmonic acid/ethylene-dependent pathways” value (Arabidopsis thaliana [4]; in vivo) was “strongly activated”. For the same molecule, the “hypersensitive response (HR)” value (Arabidopsis thaliana [4]; including the oxidative burst and cell death) was “induced HR”, the apoptosis ([5]; Rice suspension cells and leaves) was “showed apoptosis” and the reactive oxygen species ([5]; rice suspension cells, Ca^2+-dependent) was “induced reactive oxygen species (ROS)”. The “hypersensitive response (HR)” value ([5]; rice) was “can elicit the hypersensitive response (HR)”, the “sensitivity of transformed cells to apoptosis” value [6] was “extremely sensitive to apoptosis” and the “potency of prostaglandin E1 in elevating cyclic AMP” value (NRK cells) was “two to five times more potent”. For the same molecule, the “phase of cell cycle arrest” value (transformed cells) was “G1 phase”, the “mitochondrial cytochrome c release” value [7] was “released cytochrome c” and the “fate of viruses and host cells” value (virally infected cells) was “Death by apoptosis”. For the same molecule, the “fate of virally infected cells” value (virally infected cells; by apoptosis) was “killed”, the “toxic effects in normal cells” value ([8]; longer exposure (one week)) was “most normal cells showed no toxic effects; also recorded: no toxic effects” and the “cell cycle arrest of normal cells” value ([8]; short-term treatment) was “arrests normal cells in G1 (Go)”.

In the case of NC(=O)c1cccnc1 [Nicotinamide, reference compound], the “effect on cell growth or apoptosis” value ([6]; 48 h) is listed as “no effect on cell growth or apoptosis”.

For O=C(O)CN(CCOCCOCCN(CC(=O)O)CC(=O)O)CC(=O)O [EGTA], the “disintegration of viral membranes” value (mammalian retroviruses) is given as “partial disintegration of viral membranes” and the “disintegration of viral membranes” value (Mammalian rotaviruses) is given as “partial disintegration of the viral membranes”.

In the case of COS(C)(=O)=O [MMS, Methyl Methane Sulphonate], the “growth of ars27A seedlings” value [9] is given as “strongly inhibited”.

From patent US20090241221A1, “TANDEM REAPEAT DNA CONSTRUCTS PRODUCING PROTEINS THAT ATTACK PLANT PATHOGENIC VIRUSES, FUNGI, AND BACTERIA BY DISRUPTING TRANSCRIPTION FACTORS ESSENTIAL FOR REPLICATION THEREOF IN PLANTS” (priority 2008, published 2009)
